# Earlier results, collected in article PMC8158804 (ACS Omega, 2021).
# Where two headings read alike, the source gives them in different places.
# Experiments:
# [1] = critical aggregation concentration, conductivity, pure water
# [2] = critical aggregation concentration, fluorimetry, pure water
Substance,CAC (−log M) [1],CAC (−log M) [2]
Ac-GAVILEE,3.15 −log M,
Ac-GAVILEE-NH2,3.10 −log M,
AcGAAVILRRNH2,,1.52 −log M
AcGVPGVGKKNH2 [KK8],,2.10 −log M
AcIIIGVPGVGKKNH2 [IKK11],,2.66 −log M
AcIIIGVPGVGVPGVGKKNH2 [IKK16],,3.13 −log M
AcIIIKGVPGVGKNH2 [IK-K11],,2.58 −log M
AcIIIKGVPGVGVPGVGKNH2 [IK-K16],,3.03 −log M
AcKGVPGVGKNH2 [K-K8],,2.10 −log M
AcLIIKNH2 [LI2K],2.99 −log M,
RFRF [[RF]2],,4.40 −log M
RFRFRF [[RF]3],,2.64 −log M
RFRFRFRF [[RF]4],,3.52 −log M
RFRFRFRFRF [[RF]5],,4.70 −log M
V6K2GRGDS,,4.83 −log M
